Assay results as given in paper PMC7528081, “The electrophysiological effect of cannabidiol on hERG current and in guinea-pig and rabbit cardiac preparations” (Scientific Reports, 2020).

Molecular target: T1, hERG potassium channel (Homo sapiens, UniProt Q12809)
T1 construct: gene KCNH2
Assay: automated whole-cell patch clamp (Patchliner), HEK […] cells expressing hERG, room temperature
Assay type: cell-based

T1 sequence (Q12809 whole entry): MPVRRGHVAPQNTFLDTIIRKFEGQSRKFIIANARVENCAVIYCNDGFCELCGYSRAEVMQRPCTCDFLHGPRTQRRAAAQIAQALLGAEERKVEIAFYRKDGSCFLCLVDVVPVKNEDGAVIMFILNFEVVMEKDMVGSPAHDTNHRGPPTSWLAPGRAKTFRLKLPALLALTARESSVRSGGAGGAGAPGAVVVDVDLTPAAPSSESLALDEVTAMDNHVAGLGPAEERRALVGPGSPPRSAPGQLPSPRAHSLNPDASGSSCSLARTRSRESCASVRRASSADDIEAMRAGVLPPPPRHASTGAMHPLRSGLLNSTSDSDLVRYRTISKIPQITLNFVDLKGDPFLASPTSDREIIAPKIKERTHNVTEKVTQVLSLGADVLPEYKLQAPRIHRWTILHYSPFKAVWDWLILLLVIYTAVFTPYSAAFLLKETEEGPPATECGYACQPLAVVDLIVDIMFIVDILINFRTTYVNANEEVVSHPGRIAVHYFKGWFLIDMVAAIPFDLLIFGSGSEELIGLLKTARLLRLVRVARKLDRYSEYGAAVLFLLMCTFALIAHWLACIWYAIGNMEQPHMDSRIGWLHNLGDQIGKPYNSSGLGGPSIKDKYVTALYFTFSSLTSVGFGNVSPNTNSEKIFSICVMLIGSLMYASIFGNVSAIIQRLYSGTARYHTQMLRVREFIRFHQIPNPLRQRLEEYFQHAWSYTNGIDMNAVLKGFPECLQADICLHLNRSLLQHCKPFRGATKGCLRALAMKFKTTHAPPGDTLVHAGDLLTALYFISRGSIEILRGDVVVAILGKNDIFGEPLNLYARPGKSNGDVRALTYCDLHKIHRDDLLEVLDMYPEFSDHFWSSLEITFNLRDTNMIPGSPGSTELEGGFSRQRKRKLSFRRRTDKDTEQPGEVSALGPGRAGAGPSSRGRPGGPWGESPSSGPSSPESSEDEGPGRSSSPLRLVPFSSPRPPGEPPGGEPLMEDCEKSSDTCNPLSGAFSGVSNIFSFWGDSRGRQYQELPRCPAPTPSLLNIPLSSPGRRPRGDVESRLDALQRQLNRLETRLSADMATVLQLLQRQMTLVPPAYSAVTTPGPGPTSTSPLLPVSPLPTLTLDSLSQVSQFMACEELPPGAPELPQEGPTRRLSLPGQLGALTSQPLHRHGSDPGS

Row | SMILES | IC50
1 | CCCCCc1cc(O)c2c(c1)OC(C)(C)[C@@H]1CCC(C(=O)O)=C[C@@H]21 [11-nor-9-carboxy-tetrahydrocannabinol] | 65.4 ± 3.82 µM
2 | C=C(C)[C@@H]1CCC(C)=C[C@H]1c1c(O)cc(CCCCC)cc1O [cannabidiol] | 2.07 ± 0.12 µM
3 | CCCCCc1cc(O)c2c(c1)OC(C)(C)[C@@H]1CCC(C)=C[C@@H]21 [tetrahydrocannabinol] | 10.3 ± 0.55 µM
